The record followed here is ChEMBL document CHEMBL5260848, “Recent advancements in the development of bioactive pyrazoline derivatives” (Eur J Med Chem, 2020).

SMILES strings stand for the structures. Converted amounts (≈) assume the structure as drawn.

In one data set the test system is Aspergillus fumigatus. In words: Antifungal activity against Aspergillus fumigatus incubated for 24 hrs by disc diffusion method. It counts as functional.
The subject of the next data set is Bacillus subtilis. In words: microbe, parasite or virus in culture. To be noted: 24 h.
The subject of the next data set is Aspergillus flavus. In words: Antifungal activity against Aspergillus flavus incubated for 24 hrs by disc diffusion method. The data set is classed as functional.
The subject of the next data set is Escherichia coli. Kind of data set: Antibacterial activity against Escherichia coli incubated for 24 hrs by disc diffusion method. The data set is classed as functional.
The next data set concerns Aspergillus niger. In words: Antifungal activity against Aspergillus niger incubated for 24 hrs by disc diffusion method. It counts as functional.
In a further data set the test system is Candida albicans. Kind of data set: microbe, parasite or virus in culture. The following applies: 24 h.
Data set [1] deals with Mycobacterium tuberculosis. In words: microbe, parasite or virus in culture. The following applies: 120 h.
The next data set concerns Pseudomonas aeruginosa. Kind of data set: microbe, parasite or virus in culture. To be noted: 24 h.
The next data set relates to Staphylococcus aureus. In words: microbe, parasite or virus in culture. To be noted: 24 h.
For data set [2], the species on record is Mus musculus. Kind of data set: Antidepressant activity in mouse assessed as […] by forced swimming test. It counts as functional.
For data set [3], the species on record is Mus musculus. In words: Antidepressant activity in mouse assessed as […] by tail suspension test. It counts as functional.
A further data set relates to PC-12. Kind of data set: Cytotoxicity against rat PC-12 cells assessed as reduction in cell viability relative to control. It counts as toxicity, cell-based.
Data set [4] can be described thus: Cytotoxicity against rat PC-12 cells assessed as reduction in cell viability. It counts as toxicity, cell-based.
Data set [5] deals with T1, Amine oxidase [flavin-containing] B (Homo sapiens, UniProt P27338).
T1 sequence (P27338 whole entry): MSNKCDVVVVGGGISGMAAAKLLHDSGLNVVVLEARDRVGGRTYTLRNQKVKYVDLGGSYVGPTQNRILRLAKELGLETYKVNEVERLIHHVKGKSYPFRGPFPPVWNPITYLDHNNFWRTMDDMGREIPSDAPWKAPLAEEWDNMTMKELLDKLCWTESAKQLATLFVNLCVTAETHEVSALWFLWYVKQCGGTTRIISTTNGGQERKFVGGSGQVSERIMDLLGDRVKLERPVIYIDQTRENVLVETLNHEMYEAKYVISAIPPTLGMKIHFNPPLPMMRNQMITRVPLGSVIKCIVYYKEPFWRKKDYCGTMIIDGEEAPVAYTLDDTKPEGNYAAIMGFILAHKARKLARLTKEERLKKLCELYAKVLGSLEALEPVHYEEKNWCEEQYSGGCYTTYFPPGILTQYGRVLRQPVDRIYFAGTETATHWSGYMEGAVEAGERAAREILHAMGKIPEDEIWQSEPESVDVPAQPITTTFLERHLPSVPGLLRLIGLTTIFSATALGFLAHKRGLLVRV

The target in data set [6] is T2, Amine oxidase [flavin-containing] A (Homo sapiens, UniProt P21397).
T2 sequence (P21397 whole entry): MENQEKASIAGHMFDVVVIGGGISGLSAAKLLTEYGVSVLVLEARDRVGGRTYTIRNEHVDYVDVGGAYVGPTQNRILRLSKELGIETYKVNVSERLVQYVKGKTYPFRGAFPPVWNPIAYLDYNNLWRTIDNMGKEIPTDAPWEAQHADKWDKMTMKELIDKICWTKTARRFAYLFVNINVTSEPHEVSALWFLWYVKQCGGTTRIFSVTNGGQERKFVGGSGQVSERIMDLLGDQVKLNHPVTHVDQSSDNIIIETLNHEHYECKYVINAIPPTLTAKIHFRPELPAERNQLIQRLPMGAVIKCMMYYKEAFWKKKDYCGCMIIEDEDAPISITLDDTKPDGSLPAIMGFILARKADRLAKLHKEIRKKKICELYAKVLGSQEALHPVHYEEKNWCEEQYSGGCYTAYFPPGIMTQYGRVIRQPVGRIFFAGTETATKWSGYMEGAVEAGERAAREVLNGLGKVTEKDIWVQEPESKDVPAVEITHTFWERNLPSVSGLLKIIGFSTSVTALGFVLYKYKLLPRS

Regarding `Cc1ccc(C2CC(c3ccccc3)=NN2C(=O)NNS(=O)(=O)c2ccc(F)cc2)cc1` (stereo not drawn), the MIC against Aspergillus fumigatus, with Bacillus subtilis, against Aspergillus flavus, in the data set with Escherichia coli, against Aspergillus niger and against Candida albicans was 25 µg/mL (≈ 55.2 µM) throughout. The results for the MIC (in data set [1]; in the data set on Pseudomonas aeruginosa; in the data set on Staphylococcus aureus) were 0.8 µg/mL (≈ 1.77 µM), 25 µg/mL (≈ 55.2 µM) and 25 µg/mL (≈ 55.2 µM), respectively.
`COc1ccc(C2CC(c3ccccn3)=NN2)cc1OC` (stereo not drawn): the Time in the data set filed under Mus musculus [2] and in the data set listed under Mus musculus [3] was 21.17 s throughout.
On to `N#Cc1ccc(N2N=C(c3cccs3)CC2c2ccc3c(c2)OCO3)cc1` (stereo not drawn), for which the Activity in the data set with PC-12 is on record as 3%. For the same compound, in [4], the IC50 turned out to be 12 µg/mL (≈ 32.1 µM).
Regarding `O=C(NNS(=O)(=O)c1ccccc1)N1N=C(c2ccccc2)CC1c1ccc(Br)cc1` (stereo not drawn), the MIC against Aspergillus fumigatus, in the data set with Bacillus subtilis, in the data set with Aspergillus flavus, against Escherichia coli, in the data set with Aspergillus niger and with Candida albicans was 25 µg/mL (≈ 50.1 µM) each time. Moreover, the MIC in data set [1] was determined as 0.8 µg/mL (≈ 1.6 µM); in the data set on Pseudomonas aeruginosa, 25 µg/mL (≈ 50.1 µM); against Staphylococcus aureus, 25 µg/mL (≈ 50.1 µM).
Turning to `Cc1ccc(C2CC(c3ccco3)=NN2c2ccc(C#N)cc2)cc1` (stereo not drawn), the Activity in the data set on PC-12 was determined as 3%. Moreover, the IC50 in data set [4] amounted to 12 µg/mL (≈ 36.7 µM).
For the compound `C=CCNC(=S)N1N=C(c2ccc(OC)cc2)CC1c1ccc(F)cc1` (stereo not drawn), the Ki in [5] came out at 200 nM; in data set [6], 0.1 nM.
For the compound `Clc1ccc(C2CC(c3ccccn3)=NN2)cc1` (stereo not drawn), the Time in the data set listed under Mus musculus [2] and in the data set filed under Mus musculus [3] was 21.17 s each time.
As to `O=C(NNS(=O)(=O)c1ccc(F)cc1)N1N=C(c2ccccc2)CC1c1ccccc1` (stereo not drawn), the MIC with Aspergillus fumigatus, in the data set on Bacillus subtilis, against Aspergillus flavus, with Escherichia coli, with Aspergillus niger and against Candida albicans was 25 µg/mL (≈ 57 µM) throughout. In addition, the figures for the MIC (in [1]; with Pseudomonas aeruginosa; with Staphylococcus aureus) were 0.8 µg/mL (≈ 1.82 µM), 25 µg/mL (≈ 57 µM) and 25 µg/mL (≈ 57 µM), respectively.
Take `Cc1ccc(C2CC(c3ccco3)=NN2c2ccc(S(C)(=O)=O)cc2)cc1` (stereo not drawn): the Activity in the data set on PC-12 stood at 80%. The IC50 in data set [4] was above 400 µg/mL.
In the case of `O=C(NNS(=O)(=O)c1ccccc1)N1N=C(c2ccccc2)CC1c1ccc(Cl)cc1` (stereo not drawn), the MIC with Aspergillus fumigatus, in the data set with Bacillus subtilis, against Aspergillus flavus, with Escherichia coli, against Aspergillus niger and with Candida albicans was 25 µg/mL (≈ 55 µM) in each case. For the same compound, the values for the MIC (in data set [1]; in the data set on Pseudomonas aeruginosa; in the data set on Staphylococcus aureus) were 1.6 µg/mL (≈ 3.52 µM), 25 µg/mL (≈ 55 µM) and 25 µg/mL (≈ 55 µM), respectively.
As to `Cc1ccc(C2CC(c3ccco3)=NN2c2ccc(Br)cc2)cc1` (stereo not drawn), the Activity with PC-12 worked out at 3%. The IC50 in data set [4] was 12 µg/mL (≈ 31.5 µM).
Regarding `Fc1ccc(N2N=C(c3cccs3)CC2c2ccc3c(c2)OCO3)cc1` (stereo not drawn), the Activity in the data set on PC-12 is listed as 3%. Moreover, in data set [4], the 50% inhibitory concentration (IC50) worked out at 12 µg/mL (≈ 32.7 µM).
On to `Brc1ccc(N2N=C(c3cccs3)CC2c2ccc3c(c2)OCO3)cc1` (stereo not drawn), for which the Activity in the data set with PC-12 stood at 3%. The IC50 in data set [4] is 12 µg/mL (≈ 28.1 µM).
Consider `Clc1ccc(N2N=C(c3cccs3)CC2c2ccc3c(c2)OCO3)cc1` (stereo not drawn), for which the Activity in the data set on PC-12 is 3%. Moreover, the IC50 in data set [4] came out at 12 µg/mL (≈ 31.3 µM).
Regarding `NS(=O)(=O)c1ccc(N2N=C(c3cccs3)CC2c2ccc3c(c2)OCO3)cc1` (stereo not drawn), the Activity in the data set on PC-12 is 3%. The half-inhibitory concentration (IC50) in [4] is 12 µg/mL (≈ 28.1 µM).
